# Source: patent US9403776B2, “Aryl- and heteroaryl-substituted tetrahydrobenzazepines and use thereof to block reuptake of norepinephrine, dopamine, and serotonin” (Albany Molecular Research, Inc., priority 2005, dated 2016)
# Where a name gives a salt, the structure may show the parent alone.
row,Structure (SMILES),melting point
1,CN1CCC(c2ccccc2)c2ccc(F)cc2C1.O=C(O)/C=C\C(=O)O (centres unmarked),153 to 155 °C
2,COc1ccc2c(c1)CN(C)CCC2c1cc(F)c(C#N)c(F)c1 (centres unmarked) (as salt: citrate),82 to 86 °C
3,"COc1ccc2c(c1)CN(C)CCC2c1cc(F)c(O)c(F)c1 (centres unmarked) (as salt: citrate) [Example 62, 2,6-difluoro-4-(8-methoxy-2-methyl-2,3,4,5-tetrahydro-1H-benzo[c]azepin-5-yl)phenol]",88 to 90 °C
4,"COc1ccc2c(c1)CN(C)CCC2c1ccc(O)c(F)c1 (centres unmarked) (as salt: maleate) [Example 63, 2-fluoro-4-(8-methoxy-2-methyl-2,3,4,5-tetrahydro-1H-benzo[c]azepin-5-yl)phenol]",50 to 54 °C
5,"COc1cccc2c1C(c1ccccc1)CCN(C)C2 (racemic) (as salt: fumarate) [Example 2, (+/−)-6-methoxy-2-methyl-5-phenyl-2,3,4,5-tetrahydro-1H-benzo[c]azepine]",154 to 156 °C
6,"COc1ccc2c(c1)CN(C)CCC2c1ccc(F)cc1 (racemic) (as salt: hydrochloride) [Example 3, (+/−)-5-(4-fluorophenyl)-8-methoxy-2-methyl-2,3,4,5-tetrahydro-1H-benzo[c]azepine]",149 to 150 °C
7,"COc1ccc2c(c1)CN(C)CCC2c1ccc(Cl)cc1 (racemic) (as salt: hydrochloride) [Example 7, (+/−)-5-(4-chlorophenyl)-8-methoxy-2-methyl-2,3,4,5-tetrahydro-1H-benzo[c]azepine]",152 to 153 °C
8,"COc1ccc2c(c1)CN(C)CCC2c1ccc(F)c(F)c1 (racemic) (as salt: hydrochloride) [Example 9, (+/−)-5-(3,4-difluorophenyl)-8-methoxy-2-methyl-2,3,4,5-tetrahydro-1H-benzo[c]azepine]",139 to 141 °C
9,"COc1ccc2c(c1)CN(C)CCC2c1ccccc1Cl (racemic) (as salt: hydrochloride) [Example 10, (+/−)-5-(2-chlorophenyl)-8-methoxy-2-methyl-2,3,4,5-tetrahydro-1H-benzo[c]azepine]",129 to 132 °C
10,"COc1ccc2c(c1)CN(C)CCC2c1ccc(F)c(Cl)c1 (racemic) (as salt: hydrochloride) [Example 11, (+/−)-5-(3-chloro-4-fluorophenyl)-8-methoxy-2-methyl-2,3,4,5-tetrahydro-1H-benzo[c]azepine]",167 to 169 °C
11,"COc1ccc2c(c1)CNCCC2c1ccccc1 (racemic) (as salt: maleate) [Example 53, (+/−)-8-methoxy-5-phenyl-2,3,4,5-tetrahydro-1H-benzo[c]azepine]",154 to 156 °C
12,"COc1ccc2c(c1)CN(C(C)C)CCC2c1ccccc1 (racemic) (as salt: maleate) [Example 55, (+/−)-2-isopropyl-8-methoxy-5-phenyl-2,3,4,5-tetrahydro-1H-benzo[c]azepine]",172 to 175 °C
13,"CN1CCC(c2ccc(Cl)cc2)c2ccc(-c3ccc(N(C)C)nn3)cc2C1 (single isomer, unassigned) (as salt: maleate) [Example 45, {6-[5-(4-chlorophenyl)-2-methyl-2,3,4,5-tetrahydro-1H-benzo[c]azepine-8-yl]-pyridazin-3-yl}-dimethylamine]",96 to 98 °C
14,"Cc1ccc(-c2ccc3c(c2)CN(C)CCC3c2cccc(F)c2)nn1 (single isomer, unassigned; (+)) (as salt: citrate) [Example 84 (+), (+)-5-(3-fluorophenyl)-2-methyl-8-(6-methylpyridazin-3-yl)-2,3,4,5-tetrahydro-1H-benzo[c]azepine]",90 to 95 °C
15,"Cc1ccc2c(c1)CN(C)CCC2c1ccc(F)cc1 (single isomer, unassigned; (+)) (as salt: hydrochloride) [Example 16, (+)-5-(4-fluorophenyl)-2,8-dimethyl-2,3,4,5-tetrahydro-1H-benzo[c]azepine]",243 to 244 °C
16,"Cc1ccc(-c2ccc3c(c2)CN(C)CCC3c2ccc(Cl)cc2)nn1 (single isomer, unassigned; (+)) (as salt: hydrochloride) [Example 39, (+)-5-(4-chlorophenyl)-2-methyl-8-(6-methyl-pyridazin-3-yl)-2,3,4,5-tetrahydro-1H-benzo[c]azepine]",179 to 181 °C (dec.)
17,"CN1CCC(c2ccc(Cl)cc2)c2ccc(-c3cccnn3)cc2C1 (single isomer, unassigned; (+)) (as salt: hydrochloride) [Example 40, (+)-5-(4-chlorophenyl)-2-methyl-8-pyridazin-3-yl-2,3,4,5-tetrahydro-1H-benzo[c]azepine]",187 to 189 °C (dec.)
18,"CN1CCC(c2ccccc2)c2ccc(-c3ncccn3)cc2C1 (single isomer, unassigned; (+)) (as salt: maleate) [Example 27, (+)-2-methyl-5-phenyl-8-(pyrimidin-2-yl)-2,3,4,5-tetrahydro-1H-benzo[c]azepine]",76 to 78 °C
19,"CN1CCC(c2ccccc2)c2ccc(-c3cncnc3)cc2C1 (single isomer, unassigned; (+)) (as salt: maleate) [Example 28, (+)-2-methyl-5-phenyl-8-(pyrimidin-5-yl)-2,3,4,5-tetrahydro-1H-benzo[c]azepine]",93 to 96 °C
20,"CN1CCC(c2ccccc2)c2ccc(-c3cnccn3)cc2C1 (single isomer, unassigned; (+)) (as salt: maleate) [Example 29, (+)-2-methyl-5-phenyl-8-(pyrazin-2-yl)-2,3,4,5-tetrahydro-1H-benzo[c]azepine]",67 to 69 °C
21,"Cc1noc(C)c1-c1ccc2c(c1)CN(C)CCC2c1ccc(Cl)cc1 (single isomer, unassigned; (+)) (as salt: maleate) [Example 43, (+)-5-(4-chlorophenyl)-8-(3,5-dimethylisoxazol-4-yl)-2-methyl-2,3,4,5-tetrahydro-1H-benzo[c]azepine]",196 to 198 °C
22,"CN1CCC(c2ccc(Cl)cc2)c2ccc(-c3ncccn3)cc2C1 (single isomer, unassigned; (+)) (as salt: maleate) [Example 44, (+)-5-(4-chlorophenyl)-2-methyl-8-pyrimidin-2-yl-2,3,4,5-tetrahydro-1H-benzo[c]azepine]",84 to 85 °C

# Other lines, results leading:
row,melting point,Structure (SMILES)
1,67 to 69 °C,CN1CCC(c2ccccc2)c2ccc(C#N)cc2C1 (centres unmarked) (as salt: maleate)
2,171 to 173 °C,"COc1ccc2c(c1)CN(C)CCC2c1ccccc1 (racemic) (as salt: fumarate) [Example 1, (+/−)-8-methoxy-2-methyl-5-phenyl-2,3,4,5-tetrahydro-1H-benzo[c]azepine]"
3,165 to 166 °C,"COc1ccc(C2CCN(C)Cc3cc(OC)ccc32)cc1 (racemic) (as salt: hydrochloride) [Example 5, (+/−)-5-(4-methoxyphenyl)-8-methoxy-2-methyl-2,3,4,5-tetrahydro-1H-benzo[c]azepine]"
4,168 to 170 °C,"Cc1ccc(-c2ccc3c(c2)CN(C)CCC3c2ccccc2)nn1 (single isomer, unassigned; (+)) (as salt: hydrochloride) [Example 24, (+)-2-methyl-8-(6-methyl-pyridazin-3-yl)-5-phenyl-2,3,4,5-tetrahydro-1H-benzo[c]azepine]"
5,154 to 156 °C,"CN1CCC(c2ccccc2)c2ccc(-c3cccnn3)cc2C1 (single isomer, unassigned; (+)) (as salt: hydrochloride) [Example 25, (+)-2-methyl-5-phenyl-8-(pyridazin-3-yl)-2,3,4,5-tetrahydro-1H-benzo[c]azepine]"
6,99 to 102 °C,"CN1CCC(c2ccccc2)c2ccc(-c3ccc(N(C)C)nn3)cc2C1 (single isomer, unassigned; (+)) (as salt: maleate) [Example 26, (+)-dimethyl-[6-(2-methyl-5-phenyl-2,3,4,5-tetrahydro-1H-benzo[c]azepine-8-yl)-pyridazin-3-yl]-amine]"
7,91 to 93 °C,"CN1CCC(c2ccccc2)c2ccc(-c3ccncc3)cc2C1 (single isomer, unassigned; (+)) (as salt: maleate) [Example 31, (+)-2-methyl-5-phenyl-8-(pyridin-4-yl)-2,3,4,5-tetrahydro-1H-benzo[c]azepine]"
8,112 to 114 °C,"CN1CCC(c2ccccc2)c2ccc(-c3cccc(N)n3)cc2C1 (single isomer, unassigned; (+)) (as salt: maleate) [Example 32, (+)-6-(2-methyl-5-phenyl-2,3,4,5-tetrahydro-1H-benzo[c]azepin-8-yl)pyridine-2-amine]"
9,88 to 89 °C,"CN1CCC(c2ccccc2)c2ccc(N3CCOCC3)cc2C1 (single isomer, unassigned; (+)) (as salt: maleate) [Example 34, (+)-4-(2-methyl-5-phenyl-2,3,4,5-tetrahydro-1H-benzo[c]azepin-8-yl)morpholine]"
10,94 to 96 °C,"CN1CCC(c2ccc(Cl)cc2)c2ccc(N3CCOCC3)cc2C1 (single isomer, unassigned; (+)) (as salt: maleate) [Example 48, (+)-5-(4-chlorophenyl)-2-methyl-8-morpholin-4-yl-2,3,4,5-tetrahydro-1H-benzo[c]azepine]"
11,99 to 102 °C,"CN1CCC(c2ccc3ccccc3c2)c2ccc(-c3cccnn3)cc2C1 (single isomer, unassigned; (+)) (as salt: maleate) [Example 50, (+)-2-methyl-5-naphthalen-2-yl-8-pyridazin-3-yl-2,3,4,5-tetrahydro-1H-benzo[c]azepine]"
12,110 to 112 °C,"CN1CCC(c2ccc3ccccc3c2)c2ccc(N3CCOCC3)cc2C1 (single isomer, unassigned; (+)) (as salt: maleate) [Example 51, (+)-2-methyl-8-morpholin-4-yl-5-naphthalen-2-yl-2,3,4,5-tetrahydro-1H-benzo[c]azepine]"
13,92 to 96 °C,"COc1ccc2c(c1)CN(C)CCC2c1ccc2sccc2c1 (single isomer, unassigned; (+)) (as salt: maleate) [Example 52 (+), (+)-5-benzo[b]thiophen-5-yl-8-methoxy-2-methyl-2,3,4,5-tetrahydro-1H-benzo[c]azepine]"
